{"source": "patent US8853234B2", "about": "“Quinolone analogs and methods related thereto” (Senhwa Biosciences, Inc., priority 2007, dated 2014)", "key": {"[1]": {"system": "MiaPaCa xenograft tumors", "assay": "MiaPaCa xenograft tumor inhibition", "type": "in vivo, rodents", "settings": "100 mg/kg oral twice per day, twenty-two days", "method": "(§1) Compounds A1, A2 and A3 also were tested for tumor inhibition in xenograft rodents. Rodents having A375 cell xenograft tumors were administered 100 mg/kg, 75 mg/kg and 100 mg/kg doses of Compound A1, A2 and A3, respectively, by oral delivery twice a day. […] Also, rodents having MiaPaCa xenograft tumors were administered 100 mg/kg doses of Compound A1 and A3 by oral delivery twice per day."}, "[2]": {"system": "a variety of cell types that are representative of different cancers", "assay": "Alamar Blue cell viability assay, variety of cell types representative of different cancers (Tables 12-14)", "type": "cell-based", "settings": "read-out: IC50", "method": "A representative cell-proliferation assay protocol using Alamar Blue dye (stored at 4° C., use 20 ul per well) is described hereafter.\n96-Well Plate Setup and Compound Treatment\na. Split and trypsinize cells.\nb. Count cells using hemocytometer.\nc. Plate 4,000-5,000 cells per well in 100 μl of medium and seed into a 96-well plate according to the following plate layout. Add cell culture medium only to wells B10 to B12. Wells B1 to B9 have cells but no compound added.\nd. Add 100 μl of 2× drug dilution to each well in a concentration shown in the plate layout above. At the same time, add 100 μl of media into the control wells (wells B10 to B12). Total volume is 200 μl/well.\ne. Incubate four (4) days at 37° C., 5% CO2 in a humidified incubator.\nf. Add 20 μl Alamar Blue reagent to each well.\ng. Incubate for four (4) hours at 37° C., 5% CO2 in a humidified incubator.\nh. Record fluorescence at an excitation wavelength of 544 nm and emission wavelength of 590 nm using a microplate reader.\nIn the assays, cells are cultured with a test compound for approximately four days, the dye then is added to the cells and fluorescence of […] dye is detected after approximately four hours. Different types of cells can be utilized in the assays (e.g., HCT-116 human colorectal carcinoma cells, PC-3 human prostatic cancer cells and MiaPaca human pancreatic carcinoma cells). Anti-proliferative effects of representative compounds are provided hereafter.\n(§2) Inhibitory activity on cell proliferation of Compounds A1, A2 and A3 was determined using an Alamar Blue cell viability assay (e.g., Example 39 herein) using a variety of cell types that are representative of different cancers Inhibition values (IC50) are presented in micromolar concentrations in the following table (Table 12).\nas §2, with “representative compounds of the invention” for “Compounds A1, A2 and A3”, “Table 13 and Table 14.” for “the following table (Table 12).”"}, "[3]": {"system": "A375 cell xenograft tumors", "assay": "A375 cell xenograft tumor inhibition", "type": "in vivo, rodents", "settings": "100 mg/kg oral twice a day, seven days", "method": "as §1"}}, "note": "Read-outs that look alike come from different tables or passages of the source.", "data": [{"compound": "Cc1cnc(CNC(=O)c2c(=O)c3ccc(N4CCN(C)CC4)nc3n3c2sc2ccccc23)cn1", "note": "[Compound A1]", "values": [{"measurement": "MiaPaCa tumor growth inhibition relative to untreated control group", "setting": "[1]", "value": "significantly inhibited MiaPaCa tumor growth"}, {"measurement": "IC50", "setting": "[2]; Homo sapiens, A-375, A375, Skin, Epithelial", "value": 90, "unit": "nM"}, {"measurement": "IC50", "setting": "[2]; Homo sapiens, BXPC-3, BXPC3, Pancreas, Epithelial", "value": 56, "unit": "nM"}, {"measurement": "IC50", "setting": "[2]; Homo sapiens, HCT-116, HCT-116, Colorectal, Epithelial", "value": 97, "unit": "nM"}, {"measurement": "IC50", "setting": "[2]; Homo sapiens, HL60/MX2, HL60/MX2, Hematopoetic, Lymphoma", "value": 244, "unit": "nM"}, {"measurement": "IC50", "setting": "[2]; Homo sapiens, HL-60, HL60, Hematopoetic, Lymphoma", "value": 264, "unit": "nM"}, {"measurement": "IC50", "setting": "[2]; Homo sapiens, HT-29, HT-29, Colorectal, Epithelial", "value": 73, "unit": "nM"}, {"measurement": "IC50", "setting": "[2]; Homo sapiens, Jurkat, Hematopoetic, Lymphoma", "value": 69, "unit": "nM"}, {"measurement": "IC50", "setting": "[2]; Homo sapiens, K562, K562, Hematopoetic, Lymphoblast", "value": 140, "unit": "nM"}, {"measurement": "IC50", "setting": "[2]; Homo sapiens, LNCaP, Prostate, Fibroblastoid", "value": 77, "unit": "nM"}, {"measurement": "IC50", "setting": "[2]; Homo sapiens, MCF7, MCF-7, Breast, Mammary carcinoma", "value": 348, "unit": "nM"}, {"measurement": "IC50", "setting": "[2]; Homo sapiens, MDA-MB-231, MDA-MB-231, Breast, Epithelial", "value": 105, "unit": "nM"}, {"measurement": "IC50", "setting": "[2]; Homo sapiens, MIA PaCa-2, Miapaca-2, Pancreas, Epithelial", "value": 103, "unit": "nM"}, {"measurement": "IC50", "setting": "[2]; Homo sapiens, NCI-H460, H460, Lung, Epithelial", "value": 142, "unit": "nM"}, {"measurement": "IC50", "setting": "[2]; Homo sapiens, NCI-H1299, H1299, Lung, NSCL", "value": 112, "unit": "nM"}, {"measurement": "IC50", "setting": "[2]; Homo sapiens, PANC-1, PANC-1, Pancreas, Epithelial", "value": 148, "unit": "nM"}, {"measurement": "IC50", "setting": "[2]; Homo sapiens, SAOS-2, Saos-2, Bone, Epithelial", "value": 264, "unit": "nM"}, {"measurement": "IC50", "setting": "[2]; Homo sapiens, SK-MES-1, SK-MES-1, Lung, Sqaumous carcinoma", "value": 105, "unit": "nM"}, {"measurement": "IC50", "setting": "[2]; Homo sapiens, SK-OV-3, SK-OV-3, Ovary, Epithelial", "value": 215, "unit": "nM"}, {"measurement": "IC50", "setting": "[2]; Homo sapiens, U2OS, Bone, Epithelial", "value": 752, "unit": "nM"}, {"measurement": "IC50", "setting": "[2]; Miapaca-R5, Pancreas, Epithelial", "value": 149, "unit": "nM"}, {"measurement": "IC50", "setting": "[2]; PC-3, Prostate, Epithelial", "value": 600, "unit": "nM"}, {"measurement": "A375 tumor growth inhibition relative to untreated control group", "setting": "[3]", "value": "significantly inhibited A375 tumor growth"}]}]}
